In brackets after ≈: the same amount, converted by molar mass. Read-outs that look alike come from different tables or passages of the source.
Tests used:
Type in all cases: cell-based
Conditions in all cases: for MIC: read-out: Minimal Inhibitory Concentration (MIC)
Prevotella timonensis = assay: Agar dilution MIC (CLSI), Prevotella timonensis vaginal isolates
Anaerococcus tetradius = assay: Agar dilution MIC (CLSI), Anaerococcus tetradius vaginal isolates
Peptoniphilus lacrimalis = assay: Agar dilution MIC (CLSI), Peptoniphilus lacrimalis vaginal isolates
[1] = Hoylesella timonensis, # tested 33
[2] = Anaerococcus tetradius, # tested 21
[3] = Peptoniphilus lacrimalis, # tested 20

Compound: Cc1ncc([N+](=O)[O-])n1CCO [Metronidazole]
- MIC (Prevotella timonensis; Hoylesella timonensis, isolate 601252 B): 4 mg/L (≈ 23.4 µM)
- MIC (Prevotella timonensis; Hoylesella timonensis, isolate 601255 17): 2 mg/L (≈ 11.7 µM)
- MIC (Prevotella timonensis; Hoylesella timonensis, isolate 601266 18): 2 mg/L (≈ 11.7 µM)
- MIC (Prevotella timonensis; Hoylesella timonensis, isolate 601278 12): > 128 mg/L
- MIC (Prevotella timonensis; Hoylesella timonensis, isolate 601281 22): 2 mg/L (≈ 11.7 µM)
- MIC (Prevotella timonensis; Hoylesella timonensis, isolate 601287 H): 2 mg/L (≈ 11.7 µM)
- MIC (Prevotella timonensis; Hoylesella timonensis, isolate 601293 13): 4 mg/L (≈ 23.4 µM)
- MIC (Prevotella timonensis; Hoylesella timonensis, isolate 601367 E): 4 mg/L (≈ 23.4 µM)
- MIC (Prevotella timonensis; Hoylesella timonensis, isolate 601370 13): 4 mg/L (≈ 23.4 µM)
- MIC (Prevotella timonensis; Hoylesella timonensis, isolate 601388 S): 4 mg/L (≈ 23.4 µM)
- MIC (Prevotella timonensis; Hoylesella timonensis, isolate 601401 J): 2 mg/L (≈ 11.7 µM)
- MIC (Prevotella timonensis; Hoylesella timonensis, isolate 601411 S): 4 mg/L (≈ 23.4 µM)
- MIC (Prevotella timonensis; Hoylesella timonensis, isolate 601414 O): 4 mg/L (≈ 23.4 µM)
- MIC (Prevotella timonensis; Hoylesella timonensis, isolate 601422 39): 2 mg/L (≈ 11.7 µM)
- MIC (Prevotella timonensis; Hoylesella timonensis, isolate 601429 11): 2 mg/L (≈ 11.7 µM)
- MIC (Prevotella timonensis; Hoylesella timonensis, isolate 601459 21): 2 mg/L (≈ 11.7 µM)
- MIC50 (Prevotella timonensis; [1]): 2 mg/L (≈ 11.7 µM)
- MIC90 (Prevotella timonensis; [1]): 4 mg/L (≈ 23.4 µM)
- Number of strains with indicated MIC (Prevotella timonensis; MIC >[…], 33 samples): 1
- Resistant (Prevotella timonensis; number (%) of isolates, # tested 33, resistance: rifaximin >32, metronidazole >32, clindamycin >8 μg/ml): 1 (3) μg/ml
- MIC (Anaerococcus tetradius; Anaerococcus tetradius, isolate 601103V 21): 1 mg/L (≈ 5.84 µM)
- MIC (Anaerococcus tetradius; Anaerococcus tetradius, isolate 601175V I): 1 mg/L (≈ 5.84 µM)
- MIC (Anaerococcus tetradius; Anaerococcus tetradius, isolate 601202V 11): 1 mg/L (≈ 5.84 µM)
- MIC (Anaerococcus tetradius; Anaerococcus tetradius, isolate 601212V 14): 1 mg/L (≈ 5.84 µM)
- MIC (Anaerococcus tetradius; Anaerococcus tetradius, isolate 601221V 12): 128 mg/L (≈ 748 µM)
- MIC (Anaerococcus tetradius; Anaerococcus tetradius, isolate 601242V 17): 1 mg/L (≈ 5.84 µM)
- MIC (Anaerococcus tetradius; Anaerococcus tetradius, isolate 601256V 9): 1 mg/L (≈ 5.84 µM)
- MIC (Anaerococcus tetradius; Anaerococcus tetradius, isolate 601287V V): 1 mg/L (≈ 5.84 µM)
- MIC (Anaerococcus tetradius; Anaerococcus tetradius, isolate 601305V J): 1 mg/L (≈ 5.84 µM)
- MIC (Anaerococcus tetradius; Anaerococcus tetradius, isolate 601326V H): 1 mg/L (≈ 5.84 µM)
- MIC (Anaerococcus tetradius; Anaerococcus tetradius, isolate 601340V 25): 1 mg/L (≈ 5.84 µM)
- MIC (Anaerococcus tetradius; Anaerococcus tetradius, isolate 601342V N): 1 mg/L (≈ 5.84 µM)
- MIC (Anaerococcus tetradius; Anaerococcus tetradius, isolate 601368V 42): 1 mg/L (≈ 5.84 µM)
- MIC (Anaerococcus tetradius; Anaerococcus tetradius, isolate 601369V 12): 1 mg/L (≈ 5.84 µM)
- MIC (Anaerococcus tetradius; Anaerococcus tetradius, isolate 601379V 25): 1 mg/L (≈ 5.84 µM)
- MIC (Anaerococcus tetradius; Anaerococcus tetradius, isolate 601401V T): 1 mg/L (≈ 5.84 µM)
- MIC (Anaerococcus tetradius; Anaerococcus tetradius, isolate 601429V 15): 1 mg/L (≈ 5.84 µM)
- MIC (Anaerococcus tetradius; Anaerococcus tetradius, isolate 601450V 22): 1 mg/L (≈ 5.84 µM)
- MIC (Anaerococcus tetradius; Anaerococcus tetradius, isolate 602375V 22): 1 mg/L (≈ 5.84 µM)
- MIC50 (Anaerococcus tetradius; [2]): 1 mg/L (≈ 5.84 µM)
- MIC90 (Anaerococcus tetradius; [2]): 1 mg/L (≈ 5.84 µM)
- Number of strains with indicated MIC (Anaerococcus tetradius; MIC […], 21 samples): 1
- MIC Range (Peptoniphilus lacrimalis; # tested 20): 0.5 to 4 mg/L
- MIC (Peptoniphilus lacrimalis; Peptoniphilus lacrimalis, isolate 601028V 27A): 2 mg/L (≈ 11.7 µM)
- MIC (Peptoniphilus lacrimalis; Peptoniphilus lacrimalis, isolate 601060V 32A): 2 mg/L (≈ 11.7 µM)
- MIC (Peptoniphilus lacrimalis; Peptoniphilus lacrimalis, isolate 601078V O): 1 mg/L (≈ 5.84 µM)
- MIC (Peptoniphilus lacrimalis; Peptoniphilus lacrimalis, isolate 601084V c): 4 mg/L (≈ 23.4 µM)
- MIC (Peptoniphilus lacrimalis; Peptoniphilus lacrimalis, isolate 601105V 13): 4 mg/L (≈ 23.4 µM)
- MIC (Peptoniphilus lacrimalis; Peptoniphilus lacrimalis, isolate 601139V 17): 4 mg/L (≈ 23.4 µM)
- MIC (Peptoniphilus lacrimalis; Peptoniphilus lacrimalis, isolate 601213V 17): 2 mg/L (≈ 11.7 µM)
- MIC (Peptoniphilus lacrimalis; Peptoniphilus lacrimalis, isolate 601255V 12): 1 mg/L (≈ 5.84 µM)
- MIC (Peptoniphilus lacrimalis; Peptoniphilus lacrimalis, isolate 601261V O): 1 mg/L (≈ 5.84 µM)
- MIC (Peptoniphilus lacrimalis; Peptoniphilus lacrimalis, isolate 601293V 15): 1 mg/L (≈ 5.84 µM)
- MIC (Peptoniphilus lacrimalis; Peptoniphilus lacrimalis, isolate 601296V N): 1 mg/L (≈ 5.84 µM)
- MIC (Peptoniphilus lacrimalis; Peptoniphilus lacrimalis, isolate 601305V K-1): 1 mg/L (≈ 5.84 µM)
- MIC (Peptoniphilus lacrimalis; Peptoniphilus lacrimalis, isolate 601318V E): 1 mg/L (≈ 5.84 µM)
- MIC (Peptoniphilus lacrimalis; Peptoniphilus lacrimalis, isolate 601330V H): 1 mg/L (≈ 5.84 µM)
- MIC (Peptoniphilus lacrimalis; Peptoniphilus lacrimalis, isolate 601336V 47): 1 mg/L (≈ 5.84 µM)
- MIC (Peptoniphilus lacrimalis; Peptoniphilus lacrimalis, isolate 601365V 13): 2 mg/L (≈ 11.7 µM)
- MIC (Peptoniphilus lacrimalis; Peptoniphilus lacrimalis, isolate 601368V 39): 0.5 mg/L (≈ 2.92 µM)
- MIC (Peptoniphilus lacrimalis; Peptoniphilus lacrimalis, isolate 601375V E): 1 mg/L (≈ 5.84 µM)
- MIC (Peptoniphilus lacrimalis; Peptoniphilus lacrimalis, isolate 601388V B): 1 mg/L (≈ 5.84 µM)
- MIC (Peptoniphilus lacrimalis; Peptoniphilus lacrimalis, isolate 601401V I): 1 mg/L (≈ 5.84 µM)
- MIC50 (Peptoniphilus lacrimalis; [3]): 1 mg/L (≈ 5.84 µM)
- MIC90 (Peptoniphilus lacrimalis; [3]): 4 mg/L (≈ 23.4 µM)
